Experimental data published in PMC3683333, “^11C-LY2428703, a positron emission tomographic radioligand for the metabotropic glutamate receptor 1, is unsuitable for imaging in monkey and human brains” (EJNMMI Research, 2013).
Read-outs that look alike come from different tables or passages of the source.

Tests used:
[1] = cited from earlier work
mGluR1 [2] = molecular target: mGluR1; parameters: method as in PMID 23135321; conditions: rats; read-out: in vitro affinity; cited from earlier work
human mGluR1s = molecular target: human mGluR1s; parameters: method as in PMID 23135321; conditions: cited from earlier work
[3] = system: ABCB1 (permeability glycoprotein (P-gp)) and ABCG2 (breast cancer resistance protein (BCRP)); parameters: method as in PMID 23135321; conditions: genetic knockout mice for ABCB1 and ABCG2; cited from earlier work
other human mGluRs = system: other human mGluRs; parameters: method as in PMID 23135321; conditions: cited from earlier work
mGluR1 [4] = system: mGluR1; parameters: method as in PMID 23135321; conditions: PET; cited from earlier work
[5] = parameters: method as in earlier work; conditions: cited from earlier work; for Exposure SUV (0 to 20): AUC of plasma concentration vs. time, 0 to 20 min, data of previous studies; for fp: human plasma; for Brain peak SUV: human
[6] = Brain exposure comparison of five radioligands; assay type: in vivo, human
Procedure: Another complicating factor is low delivery to brain (i.e., low drug exposure), which may have cause low brain uptake. We compared five different radioligands from previous studies with regard to exposure to brain (Table 3) and measured the area under the curve of plasma concentration vs. time from 0 to 20 min. […] The effective exposure was thus named because only the free concentration of drug can cross the blood–brain barrier. ^11C-LY2428703 had the highest exposure value among the tracers tested. This high exposure was due to the slow wash-out of the tracer from the vascular compartment and to negligible metabolism in plasma, that is, parent radioligand represented 99% of plasma radioactivity even at the end of the 2-h scanning session.

[7] = fp × AUC0 to 20, comparators from data of refs 22, 19, 23, 24

Structure (SMILES) | Exposure SUV (0 to 20) [5] [SUV] | fp [5] [%] | Brain peak SUV [5] [SUV] | other results
CC(C)Nc1cc(-c2csc(N(C)C(=O)c3ccc([18F])cc3)n2)ncn1 [^18F-FITM, reference compound] |  |  |  | LogD [1]: 1.5
COc1ccc(-c2nsc(NC(=O)[C@@H]3C[C@H]3C)c2C)cc1 [^11C-LY2428703] |  |  |  | Ki (mGluR1 [2]): 0.6 nM; Ki (human mGluR1s; humans, read-out: in vitro affinity): ~2 nM
COc1ccc(-c2nsc(NC(=O)[C@@H]3C[C@H]3C)c2C)cc1 [LY2428703] |  |  |  | Ki (human mGluR1s; females, read-out: Ki): 1.4 ± 0.4 nM; Ki (human mGluR1s; males, read-out: Ki): 2.7 ± 0.5 nM; substrate for efflux transporters at the blood–brain barrier [3]: not a substrate; affinity for other human mGluRs (other human mGluRs): no significant affinity; signal in rat cerebellum (mGluR1 [4]): large specific and displaceable signal
[11CH3]Oc1ccc([C@@H]2CNC(=O)C2)cc1OC1CCCC1 [^11C-( R )-rolipram] | 124.9 | 6.4 | 2 to 2.5 | Effective exposure (E × fp) ([6]; in vivo): 8.0
N#Cc1cc(F)cc(C#Cc2csc(C[18F])n2)c1 [^18F-SP203] | 37.0 | 5.2 | ~6 | Effective exposure (E × fp) ([6]; in vivo): 1.9
[11CH3]NC(=O)[C@@H](Cc1ccccc1F)CN1CCC2(CC1)OCCc1cc(F)sc12 [^11C-NOP1A] | 36.7 | 10.1 | 5 to 7 | Effective exposure (E × fp) [6, 7]: 3.7
C[C@@H](N[C@@H]1C[C@H](c2cccc(OC[18F])c2)N(c2ccc(C(F)(F)F)cc2)C1=O)c1ccccc1 [^18F-FMPEP] | 47.8 | 0.63 | 3 to 4 | Effective exposure (E × fp) [6, 7]: 0.30
